Paper PMC6722743, “Whole Conversion of Soybean Molasses into Isomaltulose and Ethanol by Combining Enzymatic Hydrolysis and Successive Selective Fermentations” (Biomolecules, 2019)

Target: T1, RMgase (recombinant alpha-galactosidase) (Rhizomucor miehei, UniProt H8Y263)
T1 construct: codon-optimised synthetic gene with XPR2 signal peptide at 5' end (vector pINA1312), secreted by Yarrowia lipolytica transformant G82; purified by DEAE-Sepharose for pH/temperature profiles
T1 sequence (H8Y263 18-751): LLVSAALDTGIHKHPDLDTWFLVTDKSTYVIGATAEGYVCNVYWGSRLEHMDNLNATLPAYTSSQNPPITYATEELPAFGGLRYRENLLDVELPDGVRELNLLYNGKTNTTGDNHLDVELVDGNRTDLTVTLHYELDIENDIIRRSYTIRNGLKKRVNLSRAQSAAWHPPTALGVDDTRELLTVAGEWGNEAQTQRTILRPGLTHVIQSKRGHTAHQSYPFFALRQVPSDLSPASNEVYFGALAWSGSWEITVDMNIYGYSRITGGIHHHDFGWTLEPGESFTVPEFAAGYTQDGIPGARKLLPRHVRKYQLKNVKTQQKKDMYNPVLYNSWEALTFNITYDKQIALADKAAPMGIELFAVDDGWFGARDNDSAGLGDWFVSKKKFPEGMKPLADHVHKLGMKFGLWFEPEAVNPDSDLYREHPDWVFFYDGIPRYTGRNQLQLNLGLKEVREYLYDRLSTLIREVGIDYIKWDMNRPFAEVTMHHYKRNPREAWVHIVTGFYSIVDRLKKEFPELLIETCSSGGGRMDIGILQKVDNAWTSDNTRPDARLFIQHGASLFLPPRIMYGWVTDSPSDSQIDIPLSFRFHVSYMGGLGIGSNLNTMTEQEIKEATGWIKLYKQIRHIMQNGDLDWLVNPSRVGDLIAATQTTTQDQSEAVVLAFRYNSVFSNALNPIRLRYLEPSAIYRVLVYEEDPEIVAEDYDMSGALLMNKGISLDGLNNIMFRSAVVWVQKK
Experiment: sugar hydrolysis, activity of secreted enzyme
Assay type: biochemical

## OC[C@H]1O[C@H](OC[C@H]2O[C@H](OC[C@H]3O[C@H](O[C@]4(CO)O[C@H](CO)[C@@H](O)[C@@H]4O)[C@H](O)[C@@H](O)[C@@H]3O)[C@H](O)[C@@H](O)[C@H]2O)[C@H](O)[C@@H](O)[C@H]1O [stachyose]
  sugar hydrolysis, activity of secreted enzyme: the α-galactosidase activity using pNPG, stachyose, raffinose and melibiose as substrate
